Laboratory results: ChEMBL document CHEMBL3352110, “Design, synthesis and in vitro evaluation of novel dehydroabietic acid derivatives containing a dipeptide moiety as potential anticancer agents” (Eur J Med Chem, 2015)

System: NCI-H460
Test: Cytotoxicity against human NCI-H460 cells after 48 hrs by MTT assay
Type: functional, cell-based
Settings: NCI-H460, 48 h

| SMILES | IC50 |
| --- | --- |
| CC(C)c1ccc2c(c1)/C(=N\O)C[C@H]1[C@](C)(C(=O)N[C@@H](Cc3ccccc3)C(=O)Nc3ccc(F)cc3)CCC[C@]21C | 23.4 µM |
| COc1ccccc1NC(=O)[C@H](Cc1ccccc1)NC(=O)[C@]1(C)CCC[C@]2(C)c3ccc(C(C)C)cc3/C(=N\O)C[C@@H]12 | 31 µM |
| CC(C)c1ccc2c(c1)/C(=N\O)C[C@H]1[C@](C)(C(=O)N[C@H](Cc3ccccc3)C(=O)Nc3ccccc3Cl)CCC[C@]21C | 26.9 µM |
| CC(C)c1ccc2c(c1)C(=O)C[C@H]1[C@](C)(C(=O)N[C@@H](Cc3ccccc3)C(=O)Nc3ccccc3)CCC[C@]21C | 29 µM |
| CC(C)c1ccc2c(c1)/C(=N\O)C[C@H]1[C@](C)(C(=O)N[C@H](Cc3ccccc3)C(=O)Nc3ccc(F)cc3)CCC[C@]21C | 58.6 µM |
| CC(C)c1ccc2c(c1)C(=O)C[C@H]1[C@](C)(C(=O)N[C@@H](Cc3ccccc3)C(=O)Nc3ccc(F)cc3)CCC[C@]21C | 61.6 µM |
| CC(C)c1ccc2c(c1)C(=O)C[C@H]1[C@](C)(C(=O)N[C@H](Cc3ccccc3)C(=O)Nc3ccccc3Cl)CCC[C@]21C | 50 µM |
| CC(C)c1ccc2c(c1)C(=O)C[C@H]1[C@](C)(C(=O)N[C@H](Cc3ccccc3)C(=O)Nc3ccc(Cl)cc3)CCC[C@]21C | 23.4 µM |
| COc1ccc(NC(=O)[C@H](Cc2ccccc2)NC(=O)[C@]2(C)CCC[C@]3(C)c4ccc(C(C)C)cc4/C(=N\O)C[C@@H]23)cc1 | 32 µM |
| CC(C)c1ccc2c(c1)/C(=N\O)C[C@H]1[C@](C)(C(=O)N[C@H](Cc3ccccc3)C(=O)Nc3ccccc3F)CCC[C@]21C | 42.5 µM |
| COc1ccccc1NC(=O)[C@@H](Cc1ccccc1)NC(=O)[C@]1(C)CCC[C@]2(C)c3ccc(C(C)C)cc3/C(=N\O)C[C@@H]12 | 37.1 µM |
| CC(C)c1ccc2c(c1)/C(=N\O)C[C@H]1[C@](C)(C(=O)N[C@@H](Cc3ccccc3)C(=O)Nc3ccccc3Cl)CCC[C@]21C | 36.5 µM |
| CC(C)c1ccc2c(c1)C(=O)C[C@H]1[C@](C)(C(=O)N[C@H](Cc3ccccc3)C(=O)Nc3ccccc3)CCC[C@]21C | 51.9 µM |
| CC(C)c1ccc2c(c1)/C(=N\O)C[C@H]1[C@](C)(C(=O)N[C@@H](Cc3ccccc3)C(=O)Nc3ccccc3F)CCC[C@]21C | 44.8 µM |
| CC(C)c1ccc2c(c1)/C(=N\O)C[C@H]1[C@](C)(C(=O)N[C@@H](Cc3ccccc3)C(=O)Nc3ccccc3)CCC[C@]21C | 41.3 µM |

System: HeLa
Test: Cytotoxicity against human HeLa cells after 48 hrs by MTT assay
Type: functional, cell-based
Settings: not given

| SMILES | IC50 |
| --- | --- |
| CC(C)c1ccc2c(c1)/C(=N\O)C[C@H]1[C@](C)(C(=O)N[C@@H](Cc3ccccc3)C(=O)Nc3ccc(F)cc3)CCC[C@]21C | 20.7 µM |
| COc1ccccc1NC(=O)[C@H](Cc1ccccc1)NC(=O)[C@]1(C)CCC[C@]2(C)c3ccc(C(C)C)cc3/C(=N\O)C[C@@H]12 | 19.3 µM |
| CC(C)c1ccc2c(c1)/C(=N\O)C[C@H]1[C@](C)(C(=O)N[C@H](Cc3ccccc3)C(=O)Nc3ccccc3Cl)CCC[C@]21C | 26.6 µM |
| CC(C)c1ccc2c(c1)C(=O)C[C@H]1[C@](C)(C(=O)N[C@@H](Cc3ccccc3)C(=O)Nc3ccccc3)CCC[C@]21C | 29.1 µM |
| CC(C)c1ccc2c(c1)/C(=N\O)C[C@H]1[C@](C)(C(=O)N[C@H](Cc3ccccc3)C(=O)Nc3ccc(F)cc3)CCC[C@]21C | 20.6 µM |
| CC(C)c1ccc2c(c1)C(=O)C[C@H]1[C@](C)(C(=O)N[C@@H](Cc3ccccc3)C(=O)Nc3ccc(F)cc3)CCC[C@]21C | 63.5 µM |
| CC(C)c1ccc2c(c1)C(=O)C[C@H]1[C@](C)(C(=O)N[C@H](Cc3ccccc3)C(=O)Nc3ccccc3Cl)CCC[C@]21C | > 100 µM |
| CC(C)c1ccc2c(c1)C(=O)C[C@H]1[C@](C)(C(=O)N[C@H](Cc3ccccc3)C(=O)Nc3ccc(Cl)cc3)CCC[C@]21C | 32.3 µM |
| COc1ccc(NC(=O)[C@H](Cc2ccccc2)NC(=O)[C@]2(C)CCC[C@]3(C)c4ccc(C(C)C)cc4/C(=N\O)C[C@@H]23)cc1 | 10.9 µM |
| CC(C)c1ccc2c(c1)/C(=N\O)C[C@H]1[C@](C)(C(=O)N[C@H](Cc3ccccc3)C(=O)Nc3ccccc3F)CCC[C@]21C | 20.8 µM |
| COc1ccccc1NC(=O)[C@@H](Cc1ccccc1)NC(=O)[C@]1(C)CCC[C@]2(C)c3ccc(C(C)C)cc3/C(=N\O)C[C@@H]12 | 18.4 µM |
| CC(C)c1ccc2c(c1)/C(=N\O)C[C@H]1[C@](C)(C(=O)N[C@@H](Cc3ccccc3)C(=O)Nc3ccccc3Cl)CCC[C@]21C | 22.8 µM |
| CC(C)c1ccc2c(c1)C(=O)C[C@H]1[C@](C)(C(=O)N[C@H](Cc3ccccc3)C(=O)Nc3ccccc3)CCC[C@]21C | 57.8 µM |
| CC(C)c1ccc2c(c1)/C(=N\O)C[C@H]1[C@](C)(C(=O)N[C@@H](Cc3ccccc3)C(=O)Nc3ccccc3F)CCC[C@]21C | 34.1 µM |
| CC(C)c1ccc2c(c1)/C(=N\O)C[C@H]1[C@](C)(C(=O)N[C@@H](Cc3ccccc3)C(=O)Nc3ccccc3)CCC[C@]21C | 16 µM |

System: MGC-803
Test: Cytotoxicity against human MGC803 cells after 48 hrs by MTT assay
Type: functional, cell-based
Settings: MGC-803, 48 h

| SMILES | IC50 |
| --- | --- |
| CC(C)c1ccc2c(c1)/C(=N\O)C[C@H]1[C@](C)(C(=O)N[C@@H](Cc3ccccc3)C(=O)Nc3ccc(F)cc3)CCC[C@]21C | 24.4 µM |
| COc1ccccc1NC(=O)[C@H](Cc1ccccc1)NC(=O)[C@]1(C)CCC[C@]2(C)c3ccc(C(C)C)cc3/C(=N\O)C[C@@H]12 | 11.9 µM |
| CC(C)c1ccc2c(c1)/C(=N\O)C[C@H]1[C@](C)(C(=O)N[C@H](Cc3ccccc3)C(=O)Nc3ccccc3Cl)CCC[C@]21C | 17 µM |
| CC(C)c1ccc2c(c1)C(=O)C[C@H]1[C@](C)(C(=O)N[C@@H](Cc3ccccc3)C(=O)Nc3ccccc3)CCC[C@]21C | 27.6 µM |
| CC(C)c1ccc2c(c1)/C(=N\O)C[C@H]1[C@](C)(C(=O)N[C@H](Cc3ccccc3)C(=O)Nc3ccc(F)cc3)CCC[C@]21C | 17.3 µM |
| CC(C)c1ccc2c(c1)C(=O)C[C@H]1[C@](C)(C(=O)N[C@@H](Cc3ccccc3)C(=O)Nc3ccc(F)cc3)CCC[C@]21C | 20.1 µM |
| CC(C)c1ccc2c(c1)C(=O)C[C@H]1[C@](C)(C(=O)N[C@H](Cc3ccccc3)C(=O)Nc3ccccc3Cl)CCC[C@]21C | 29.7 µM |
| CC(C)c1ccc2c(c1)C(=O)C[C@H]1[C@](C)(C(=O)N[C@H](Cc3ccccc3)C(=O)Nc3ccc(Cl)cc3)CCC[C@]21C | 20.2 µM |
| COc1ccc(NC(=O)[C@H](Cc2ccccc2)NC(=O)[C@]2(C)CCC[C@]3(C)c4ccc(C(C)C)cc4/C(=N\O)C[C@@H]23)cc1 | 14.6 µM |
| CC(C)c1ccc2c(c1)/C(=N\O)C[C@H]1[C@](C)(C(=O)N[C@H](Cc3ccccc3)C(=O)Nc3ccccc3F)CCC[C@]21C | 13.4 µM |
| COc1ccccc1NC(=O)[C@@H](Cc1ccccc1)NC(=O)[C@]1(C)CCC[C@]2(C)c3ccc(C(C)C)cc3/C(=N\O)C[C@@H]12 | 18.7 µM |
| CC(C)c1ccc2c(c1)/C(=N\O)C[C@H]1[C@](C)(C(=O)N[C@@H](Cc3ccccc3)C(=O)Nc3ccccc3Cl)CCC[C@]21C | 22.4 µM |
| CC(C)c1ccc2c(c1)C(=O)C[C@H]1[C@](C)(C(=O)N[C@H](Cc3ccccc3)C(=O)Nc3ccccc3)CCC[C@]21C | 30.5 µM |
| CC(C)c1ccc2c(c1)/C(=N\O)C[C@H]1[C@](C)(C(=O)N[C@@H](Cc3ccccc3)C(=O)Nc3ccccc3F)CCC[C@]21C | 17.8 µM |
| CC(C)c1ccc2c(c1)/C(=N\O)C[C@H]1[C@](C)(C(=O)N[C@@H](Cc3ccccc3)C(=O)Nc3ccccc3)CCC[C@]21C | 16 µM |

System: not listed separately
Test: Cytotoxicity against human HL7702 cells after 48 hrs by MTT assay
Type: functional, cell-based
Settings: L02, 48 h

| SMILES | IC50 |
| --- | --- |
| CC(C)c1ccc2c(c1)/C(=N\O)C[C@H]1[C@](C)(C(=O)N[C@@H](Cc3ccccc3)C(=O)Nc3ccc(F)cc3)CCC[C@]21C | 49.7 µM |
| COc1ccccc1NC(=O)[C@H](Cc1ccccc1)NC(=O)[C@]1(C)CCC[C@]2(C)c3ccc(C(C)C)cc3/C(=N\O)C[C@@H]12 | 58.8 µM |
| CC(C)c1ccc2c(c1)/C(=N\O)C[C@H]1[C@](C)(C(=O)N[C@H](Cc3ccccc3)C(=O)Nc3ccccc3Cl)CCC[C@]21C | 48.2 µM |
| CC(C)c1ccc2c(c1)C(=O)C[C@H]1[C@](C)(C(=O)N[C@@H](Cc3ccccc3)C(=O)Nc3ccccc3)CCC[C@]21C | 51.6 µM |
| CC(C)c1ccc2c(c1)/C(=N\O)C[C@H]1[C@](C)(C(=O)N[C@H](Cc3ccccc3)C(=O)Nc3ccc(F)cc3)CCC[C@]21C | 53.8 µM |
| CC(C)c1ccc2c(c1)C(=O)C[C@H]1[C@](C)(C(=O)N[C@@H](Cc3ccccc3)C(=O)Nc3ccc(F)cc3)CCC[C@]21C | 66.5 µM |
| CC(C)c1ccc2c(c1)C(=O)C[C@H]1[C@](C)(C(=O)N[C@H](Cc3ccccc3)C(=O)Nc3ccccc3Cl)CCC[C@]21C | 46.5 µM |
| CC(C)c1ccc2c(c1)C(=O)C[C@H]1[C@](C)(C(=O)N[C@H](Cc3ccccc3)C(=O)Nc3ccc(Cl)cc3)CCC[C@]21C | 76.3 µM |
| COc1ccc(NC(=O)[C@H](Cc2ccccc2)NC(=O)[C@]2(C)CCC[C@]3(C)c4ccc(C(C)C)cc4/C(=N\O)C[C@@H]23)cc1 | 49.6 µM |
| CC(C)c1ccc2c(c1)/C(=N\O)C[C@H]1[C@](C)(C(=O)N[C@H](Cc3ccccc3)C(=O)Nc3ccccc3F)CCC[C@]21C | 54.8 µM |
| COc1ccccc1NC(=O)[C@@H](Cc1ccccc1)NC(=O)[C@]1(C)CCC[C@]2(C)c3ccc(C(C)C)cc3/C(=N\O)C[C@@H]12 | 57.9 µM |
| CC(C)c1ccc2c(c1)/C(=N\O)C[C@H]1[C@](C)(C(=O)N[C@@H](Cc3ccccc3)C(=O)Nc3ccccc3Cl)CCC[C@]21C | 45.9 µM |
| CC(C)c1ccc2c(c1)C(=O)C[C@H]1[C@](C)(C(=O)N[C@H](Cc3ccccc3)C(=O)Nc3ccccc3)CCC[C@]21C | 53.3 µM |
| CC(C)c1ccc2c(c1)/C(=N\O)C[C@H]1[C@](C)(C(=O)N[C@@H](Cc3ccccc3)C(=O)Nc3ccccc3F)CCC[C@]21C | 57.5 µM |
| CC(C)c1ccc2c(c1)/C(=N\O)C[C@H]1[C@](C)(C(=O)N[C@@H](Cc3ccccc3)C(=O)Nc3ccccc3)CCC[C@]21C | 45.9 µM |
